This experiment relates to chromatin remodeling (pericentromeric heterochromatin). The experiment can be described thus: Chromatin remodeling with G9a inhibitor, effect of Tau (data not shown). It counts as cell-based.

Turning to `COc1cc2nc(N3CCCN(C)CC3)nc(NC3CCN(Cc4ccccc4)CC3)c2cc1OC` [BIX 01294], the “effect of Tau in preventing chromatin remodeling, compared with trichostatin A” value is “same results”.

The record behind these values is US20250134952A1, “METHODS FOR IMPROVING THE EFFICACY OF HDAC INHIBITOR THERAPY AND PREDICTING THE RESPONSE TO TREATMENT WITH HDAC INHIBITOR” (INSTITUT NATIONAL DE LA SANTÉ ET DE LA RECHERCHE MÉDICALE, priority 2021, published 2025).
